Columns and labels:
Assay type in all cases: in vivo
[1] = system: green onion young plants; test: Dwarfing test of green onion young plant; details: for Plant Height / Dwarfing Rate: 5 ml per cell on 5th day, measured 27th day; for Dwarfing Rate: vs comparative group
Procedure: (§1) 50 g of sodium tripolyphosphate was dissolved in 400 ml of distilled water at 80° C., 17.5 g of cinnamic acid was added to the sodium tripolyphosphate solution and dissolved by stirring, the resultant solution was diluted with distilled water until the total volume of solution was 500 ml, and thus 3.5% cinnamic acid aqueous solution (pH 6.5) was prepared. The aqueous solution was further diluted with distilled water 70 times or 17.5 times, and 0.05% cinnamic acid aqueous solution and 0.2% cinnamic acid aqueous solution were prepared, respectively.
(§2) Nursery soil for house use was filled into paper joint pots (each with 24 cells: 34×43×50 mm/cell), water was sufficiently given to the soil, and seeds of carrots were sowed. After seeding, the pot was placed in the same greenhouse as described above to sprout. Subsequently, on the 5th day, the cinnamic aqueous acid solutions were added to the nursery soil in the joint pots. One of the joint pots (24 cells) was prepared as a 0.05% cinnamic acid aqueous solution addition group, and 5 ml of the 0.05% cinnamic acid aqueous solution was added to the nursery soil of each cell. Another one of the join pots was prepared as a 0.2% cinnamic acid aqueous solution addition group, and 5 ml of the 0.2% cinnamic acid aqueous solution was added to the nursery soil of each cell. The other one of the joint pots was prepared as a comparative group in which 5 ml of water is added to each cell, instead of the cinnamic acid aqueous solution. Subsequently, the cultivation of carrot young plants in each group was continued under general conditions. On the 27th day, the heights of young plants in each group were measured, the dwarfing rate (%) was calculated, and the dwarfing effect of cinnamic acid aqueous solution on carrot young plants was examined. […].
In the same way as in Example 5 except that seeds of green onion were sowed, the dwarfing effect of cinnamic acid aqueous solution on green onion young plants was examined. […]

[2] = system: Japanese radish young plants; test: Dwarfing test of Japanese radish young plant; details: for Plant Height / Dwarfing Rate: 5 ml per cell on 5th day, measured 27th day; for Dwarfing Rate: vs comparative group
Procedure: as §1, §2
In the same way as in Example 5 except that seeds of Japanese radish were sowed, the dwarfing effect of cinnamic acid aqueous solution on Japanese radish young plants was examined. […]

[3] = system: field peas young plants; test: Dwarfing test of field peas young plant; details: for Plant Height / Dwarfing Rate: measured 24th day; for Dwarfing Rate: vs comparative group
Procedure: 18.4 g of potassium hydroxide was dissolved in 400 ml of distilled water at 20° C., 50 g of cinnamic acid was added to the potassium hydroxide solution and dissolved by stirring, the resultant solution was diluted with distilled water until the total volume of solution was 500 ml, and thus 10% cinnamic acid aqueous solution (pH 8.8) was prepared. The aqueous solution was further diluted with distilled water 100 times or 33.3 times, and 0.1% cinnamic acid aqueous solution and 0.3% cinnamic acid aqueous solution were prepared, respectively.
as §2
In the same way as in Example 5 except that seeds of field peas were sowed, 0.1% and 0.3% cinnamic acid solutions in example 3 were added to the nursery soil in the joint pot, and that heights of young plants in each group were measured on the 24th day, the dwarfing effect of cinnamic acid aqueous solution on field peas young plants was examined. […]

[4] = system: broccoli young plants; test: Dwarfing test of broccoli young plant; details: for Plant Height / Dwarfing Rate: 5 ml per cell on 4th day, measured 20th day; for Dwarfing Rate: vs comparative group
Procedure: as §1, §2
In the same way as in Example 12 except that seeds of broccoli were sowed, the dwarfing effect of cinnamic acid aqueous solution on broccoli young plants was examined. […]

[5] = system: cucumber young plants; test: Dwarfing test of cucumber young plant; details: for Plant Height / Dwarfing Rate: 5 ml per cell on 7th day, measured 20th day; for Dwarfing Rate: vs comparative group
Procedure: After seeding, the pot was placed in the same greenhouse as described above to sprout. Subsequently, on the 5th day, the cinnamic aqueous acid solutions were added to the nursery soil in the joint pots. One of the joint pots (24 cells) was prepared as a 0.05% cinnamic acid aqueous solution addition group, and 5 ml of the 0.05% cinnamic acid aqueous solution was added to the nursery soil of each cell. Another one of the join pots was prepared as a 0.2% cinnamic acid aqueous solution addition group, and 5 ml of the 0.2% cinnamic acid aqueous solution was added to the nursery soil of each cell. […] Subsequently, the cultivation of carrot young plants in each group was continued under general conditions. On the 27th day, the heights of young plants in each group were measured, the dwarfing rate (%) was calculated, and the dwarfing effect of cinnamic acid aqueous solution on carrot young plants was examined. From the results in Table 5, it became evident that the 0.05% and 0.2% cinnamic acid aqueous solutions are effective in dwarfing carrot young plants. In the same way as in Example 5 except that seeds of cauliflower were sowed, the cinnamic acid solutions were added to the nursery soil in the joint pot on the 4th day, and that heights of young plants in each group were measured on the 20th day, the dwarfing effect of cinnamic acid aqueous solution on cauliflower young plants was examined. From the results in Table 12, it became evident that the cinnamic acid aqueous solutions are effective in dwarfing cauliflower young plants. In the same way as in Example 12 except that seeds of tomato were sowed, and that the cinnamic acid solutions were added to the nursery soil of the joint pot on the 7th day, the dwarfing effect of cinnamic acid aqueous solution on tomato young plants was examined. From the results in Table 17, it became evident that the cinnamic acid aqueous solutions are effective in dwarfing tomato young plants. In the same way as in Example 17 except that seeds of cucumber were sowed, the dwarfing effect of cinnamic acid aqueous solution on cucumber young plants was examined. From the results in Table 18, it became evident that the cinnamic acid aqueous solutions are effective in dwarfing cucumber young plants.

[6] = 0.1% aqueous solution of Example 3, 5 ml per cell on 5th day
[7] = 0.3% aqueous solution of Example 3, 5 ml per cell on 5th day

With `O=C(O)C=Cc1ccccc1` [cinnamic acid] the “Plant Height” value ([1]; 0.05% aqueous solution) was 7.2 cm, the “Dwarfing Rate” value ([1]; 0.05% aqueous solution) was 25.8% and the “Plant Height” value ([1]; 0.2% aqueous solution) was 5.6 cm. For the same compound, the “Dwarfing Rate” value ([1]; 0.2% aqueous solution) was 42.3%, the dwarfing effect ([1]; green onion young plants, 0.05% and 0.2% aqueous solutions) was “effective” and the “Plant Height” value ([2]; 0.05% aqueous solution) was 15.3 cm. For the same compound, the “Dwarfing Rate” value ([2]; 0.05% aqueous solution) was 1.9%, the “Plant Height” value ([2]; 0.2% aqueous solution) was 10.9 cm and the “Dwarfing Rate” value ([2]; 0.2% aqueous solution) was 30.1%. The dwarfing effect ([2]; Japanese radish young plants, 0.05% and 0.2% aqueous solutions) was “effective”, the “Plant Height” value [3, 6] was 24.3 cm and the “Dwarfing Rate” value [3, 6] was 19.5%. The “Plant Height” value [3, 7] was 18.1 cm, the “Dwarfing Rate” value [3, 7] was 40.1% and the dwarfing effect ([3]; field peas young plants, 0.1% and 0.3% aqueous solutions) was “effective”. The “Plant Height” value ([4]; 0.05% aqueous solution) was 8.8 cm, the “Dwarfing Rate” value ([4]; 0.05% aqueous solution) was 6.4% and the “Plant Height” value ([4]; 0.2% aqueous solution) was 6.4 cm. The “Dwarfing Rate” value ([4]; 0.2% aqueous solution) was 31.9%, the dwarfing effect ([4]; broccoli young plants, 0.05% and 0.2% aqueous solutions) was “effective” and the “Plant Height” value ([5]; 0.05% aqueous solution) was 7.8 cm. For the same compound, the “Dwarfing Rate” value ([5]; 0.05% aqueous solution) was 21.2%, the “Plant Height” value ([5]; 0.2% aqueous solution) was 6.2 cm and the “Dwarfing Rate” value ([5]; 0.2% aqueous solution) was 37.4%. The dwarfing effect ([5]; cucumber young plants, 0.05% and 0.2% aqueous solutions) was “effective”.

From patent US20040200144A1, “Plant growth regulator and a method of producing the regulator” (Dainichiseika Color & Chemicals Mfg. Co., Ltd., priority 2003, published 2004)
